Experimental data taken from article PMC7155171, “Probing the Open Global Health Chemical Diversity Library for Multistage-Active Starting Points for Next-Generation Antimalarials” (ACS Infectious Diseases, 2020).
Where two headings read alike, the source gives them in different places.

What was measured:
[1] = test system: P. falciparum (NF54) stage V gametocytes; assay: Stage V gametocyte viability assay (MitoTracker Red CMXRos high content imaging); assay type: cell-based, Plasmodium falciparum; conditions: Plasmodium falciparum; for inhibition at 2 µM: read-out: Stg V Gam primary screen: Inhibition % (2uM) (n=2)
[2] = test system: HepG2-A16-CD81 hepatocytes; assay: HepG2 cytotoxicity screening (CellTiter-Glo); conditions: for HepG2 cytotoxicity 12pt dose response: Maximum inhibition (%): 12pt dose response
[3] = HepG2 cytotoxicity screening (CellTiter-Glo); conditions: human, uninfected HepG2-A16-CD81 (EGFP) hepatocytes
[4] = test system: P. berghei liver stage (PbLuc); assay: P. berghei luciferase liver stage (PbLuc) assay in HepG2-A16-CD81 hepatocytes; assay type: cell-based, Plasmodium berghei; conditions: Plasmodium berghei; for IC50: HepG2-A16-CD81, 12pt dose response, read-out: PbLuc 12pt dose response: IC50; for Emax: HepG2-A16-CD81, 48 h, 12pt dose response, maximum inhibition
[5] = molecular target: recombinant firefly luciferase (Photinus pyralis, UniProt P08659); assay: biochemical; conditions: dose response; for Emax: maximum inhibition, read-out: rLuc inhibition dose response: Maximum inhibition (%); for IC50: read-out: rLuc inhibition dose response: IC50
[6] = NF54, 72 h, read-out: Stg V Gam dose response IC50 (µM) (n=3), 10-point dose response, n=3, 72 h
[7] = NF54, read-out: Stg V Gam dose response IC50 (µM) (n=3), 10-point dose response, n=3, 72 h
[8] = NF54, 72 h, read-out: GAM V IC50, stage V gametocytes, 72 h

Chain of recombinant firefly luciferase (P08659 whole entry): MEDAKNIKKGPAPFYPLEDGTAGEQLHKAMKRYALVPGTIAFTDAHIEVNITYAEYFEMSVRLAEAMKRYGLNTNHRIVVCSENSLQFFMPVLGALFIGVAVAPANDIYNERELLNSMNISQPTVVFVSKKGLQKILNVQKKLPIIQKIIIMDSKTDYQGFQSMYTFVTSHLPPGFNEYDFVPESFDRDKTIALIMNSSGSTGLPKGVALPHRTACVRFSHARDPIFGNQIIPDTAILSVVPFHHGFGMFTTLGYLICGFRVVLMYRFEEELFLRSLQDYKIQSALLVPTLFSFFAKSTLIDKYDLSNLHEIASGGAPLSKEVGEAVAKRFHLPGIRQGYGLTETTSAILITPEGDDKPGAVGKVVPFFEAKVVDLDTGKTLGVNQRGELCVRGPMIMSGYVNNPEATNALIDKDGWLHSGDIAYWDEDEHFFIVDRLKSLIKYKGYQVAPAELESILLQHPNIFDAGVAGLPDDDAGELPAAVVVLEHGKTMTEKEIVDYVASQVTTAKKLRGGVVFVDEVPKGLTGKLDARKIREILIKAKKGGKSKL

| Structure (SMILES) | IC50 [1, 6] [µM] | inhibition at 2 µM ([1]; NF54, 72 h) [%] | further results |
| --- | --- | --- | --- |
| O=C(C1CC2(CCNCC2)CN1)N1CCN(c2cccc(Cl)c2Cl)CC1 (stereo not shown) [DDD01243908, ClC1=CC=CC(N2CCN(CC2)C(=O)C2CC3(CN2)CCNCC3)=C1Cl] | 4.94 | 52.8 |  |
| Cc1cccc(CN2CCCn3c(nnc3Cn3cccn3)C2)n1 [DDD01084631, CC1=CC=CC(CN2CCCN3C(CN4C=CC=N4)=NN=C3C2)=N1] | 1.04 | 51.5 |  |
| Cc1cc2nc(C(C)C)cc(NCC(c3ccccn3)N(C)C)n2n1 (stereo not shown) [DDD01256956, CC(C)C1=NC2=CC(C)=NN2C(NCC(N(C)C)C2=CC=CC=N2)=C1] | 0.933 | 64.8 |  |
| CC(C)Nc1nc2c(c(NC3CC3)n1)CCN(C1CCOCC1)CC2 [DDD01029612, CC(C)NC1=NC2=C(CCN(CC2)C2CCOCC2)C(NC2CC2)=N1] | 4.48 | 57 |  |
| CC(c1cccs1)N(C)Cc1cnc(-c2ccccn2)nc1 (stereo not shown) [DDD01246628, CC(N(C)CC1=CN=C(N=C1)C1=CC=CC=N1)C1=CC=CS1] | 0.293 | 81.7 |  |
| CCc1c(-c2ccccc2)nc2c(c(C)c(C)n2CCN(C)C)c1N [DDD01026714, CCC1=C(N=C2N(CCN(C)C)C(C)=C(C)C2=C1N)C1=CC=CC=C1] | 0.868 | 56.1 |  |
| Cc1cc(C)n(C2=NC(NCCC(C)C)c3c(sc4c3CCCC4)N2)n1 (stereo not shown) [DDD01037468, CC(C)CCNC1N=C(NC2=C1C1=C(CCCC1)S2)N1N=C(C)C=C1C] | > 10 |  |  |
| Cc1cn2c(n1)C(CNCc1cccc3c1OCO3)CCC2 (stereo not shown) [DDD01073293, CC1=CN2CCCC(CNCC3=CC=CC4=C3OCO4)C2=N1] | 1.62 | 66.7 |  |
| Cc1cnn(CC2CCCN2Cc2nc(C)c3ccccc3n2)c1 (stereo not shown) [DDD01298810, CC1=CN(CC2CCCN2CC2=NC(C)=C3C=CC=CC3=N2)N=C1] | 0.296 | 51.9 |  |
| Cc1cccc(CN2C[C@@H]3COC[C@H](NS(C)(=O)=O)[C@@H]3C2)n1 [DDD01032715, CC1=CC=CC(CN2C[C@@H]3COC[C@H](NS(C)(=O)=O)[C@@H]3C2)=N1] |  |  | IC50 [1, 7]: 1.54 µM; inhibition at 2 µM ([1]; NF54, Table S6, 2uM, n=2, 72 h): 70.6% |
| Cc1cnc2c(S(=O)(=O)NC3CCS(=O)(=O)C3)cccc2c1 (stereo not shown) [DDD01296003, CC1=CN=C2C(C=CC=C2S(=O)(=O)NC2CCS(=O)(=O)C2)=C1] | 2.28 | 76.3 |  |
| Cc1ccc2nc(CN(C)Cc3n[nH]c4c3CCCCC4)[nH]c2c1C [DDD01247714, CN(CC1=NC2=CC=C(C)C(C)=C2N1)CC1=C2CCCCCC2=NN1] | 1.62 | 89.8 |  |
| Cc1nnc(NCc2ccccc2Cl)c(C#N)c1C [DDD01302395, CC1=NN=C(NCC2=CC=CC=C2Cl)C(C#N)=C1C] | > 9.58 | 68.1 |  |
| Cc1nn(C)c2nc(-c3ccccn3)nc(NCCCOC(C)C)c12 [DDD01254389, CC(C)OCCCNC1=C2C(C)=NN(C)C2=NC(=N1)C1=CC=CC=N1] | 1.71 | 61.4 | IC50 [1, 8]: 1.71 µM |
| CO[C@H]1CCN(Cc2cccc(C)n2)[C@@H]2CN(Cc3cccnc3)C[C@H]12 [DDD01036932, CO[C@H]1CCN(CC2=CC=CC(C)=N2)[C@@H]2CN(CC3=CC=CN=C3)C[C@H]12] | 0.276 | 78.9 |  |
| CN(C)c1nc(N)nc(CN2CCCC2c2cccs2)n1 (stereo not shown) [DDD01075894, CN(C)C1=NC(N)=NC(CN2CCCC2C2=CC=CS2)=N1] | 2.25 | 66 |  |
| Cc1cccc(CNC(Cc2ccsc2)c2nc(C)c(C)s2)n1 (stereo not shown) [DDD01059048, CC1=C(C)N=C(S1)C(CC1=CSC=C1)NCC1=CC=CC(C)=N1] | 3.9 | 65.3 |  |
| COCC(C)NCc1nc(-c2ccc(C)cc2)c(-c2ccccn2)[nH]1 (stereo not shown) [DDD01244737, COCC(C)NCC1=NC(=C(N1)C1=CC=C(C)C=C1)C1=CC=CC=N1] | 1.64 | 72.4 | IC50 [1, 8]: 1.64 µM |
| CCSCC(C)NCc1cn2ccccc2n1 (stereo not shown) [DDD01245879, CCSCC(C)NCC1=CN2C=CC=CC2=N1] | 1.71 | 74 |  |
| CCSCCNc1nc(-c2ccccn2)nc2c1c(C)nn2C [DDD01253625, CCSCCNC1=C2C(C)=NN(C)C2=NC(=N1)C1=CC=CC=N1] | 1.89 | 58.4 | IC50 [1, 8]: 1.88 µM |
| Cc1cccc(CN2CCC3(CCN(c4cccnc4)C3=O)C2)n1 (stereo not shown) [DDD01033290, CC1=CC=CC(CN2CCC3(CCN(C3=O)C3=CC=CN=C3)C2)=N1] |  |  | IC50 [1, 7]: 0.46 µM; inhibition at 2 µM ([1]; NF54, Table S6, 2uM, n=2, 72 h): 75.8% |

| Structure (SMILES) | IC50 [1, 6] [µM] | inhibition at 2 µM ([1]; NF54, 72 h) [%] | further results |
| --- | --- | --- | --- |
| Cc1cccc(CN2Cc3[nH]nc(COCCO)c3C2)n1 [DDD01030906, CC1=CC=CC(CN2CC3=C(C2)C(COCCO)=NN3)=N1] | 1.47 | 82.1 |  |
| COc1cccc(CN2CCCC2c2cncc(Nc3nncs3)n2)c1 (stereo not shown) [DDD01058609, COC1=CC=CC(CN2CCCC2C2=CN=CC(NC3=NN=CS3)=N2)=C1] | 0.534 | 63.5 | IC50 [1, 8]: 0.53 µM |
| Cc1nc(Nc2ncccn2)cc(C2CCCN2CC(C)C)n1 (stereo not shown) [DDD01061131, CC(C)CN1CCCC1C1=CC(NC2=NC=CC=N2)=NC(C)=N1] | 6.69 | 66.6 |  |
| COc1cc(CNC(c2ccccc2)c2nccn2C)cc(OC)c1 (stereo not shown) [DDD01296506, COC1=CC(OC)=CC(CNC(C2=NC=CN2C)C2=CC=CC=C2)=C1] | 0.513 | 58.3 |  |
| Cc1cc(C)n(C2=NC(NCCCO)c3c(sc4c3CCCC4)N2)n1 (stereo not shown) [DDD01037469, CC1=NN(C(C)=C1)C1=NC(NCCCO)C2=C(N1)SC1=C2CCCC1] | 0.39 | 91.5 |  |
| CCCc1nc2c(c(C)c(C)n2CCN(C)C)c(N)c1CC [DDD01026700, CCCC1=C(CC)C(N)=C2C(C)=C(C)N(CCN(C)C)C2=N1] |  |  | IC50 [1, 7]: 0.97 µM; inhibition at 2 µM ([1]; NF54, Table S6, 2uM, n=2, 72 h): 49.2% |
| CNc1cc(C)nc(NCc2cc(C)cc3c(C)c(C)[nH]c23)n1 [DDD01248198, CNC1=CC(C)=NC(NCC2=C3NC(C)=C(C)C3=CC(C)=C2)=N1] | 0.791 | 70.7 | IC50 [1, 8]: 0.79 µM |
| Cc1ccccc1CN1CCCC1c1cccc(Nc2nccs2)n1 (stereo not shown) [DDD01057017, CC1=CC=CC=C1CN1CCCC1C1=CC=CC(NC2=NC=CS2)=N1] | 0.261 |  | IC50 [1, 8]: 0.26 µM |
| c1ccc(CCN2CCCC2c2cccc(Nc3nccs3)n2)cc1 (stereo not shown) [DDD01056785, C(CC1=CC=CC=C1)N1CCCC1C1=CC=CC(NC2=NC=CS2)=N1] | 0.392 | 73.4 | IC50 [1, 8]: 0.39 µM |
| COCc1noc(-c2ccc(N(C)Cc3ncccc3C)nc2)n1 [DDD01248427, COCC1=NOC(=N1)C1=CC=C(N=C1)N(C)CC1=NC=CC=C1C] | 1.02 | 58.1 |  |
| Cc1cccc(CN2CCCC2c2cncc(Nc3nncs3)n2)c1 (stereo not shown) [DDD01058843, CC1=CC=CC(CN2CCCC2C2=CN=CC(NC3=NN=CS3)=N2)=C1] | 0.319 | 78.8 | IC50 [1, 8]: 0.32 µM |
| CC(C)Nc1nc2c(c(NC3CC3)n1)CCN(Cc1nccn1C)CC2 [DDD01031405, CC(C)NC1=NC2=C(CCN(CC3=NC=CN3C)CC2)C(NC2CC2)=N1] | 2.65 | 58.7 |  |
| Cn1cccc1CNCC1CCCn2cc(C(C)(C)C)nc21 (stereo not shown) [DDD01062585, CN1C=CC=C1CNCC1CCCN2C=C(N=C12)C(C)(C)C] | 0.741 | 74 | IC50 [1, 8]: 0.74 µM |
| Cc1cnc(Nc2cccc(C3CCCN3Cc3cn(C)nc3C)n2)s1 (stereo not shown) [DDD01056825, CN1C=C(CN2CCCC2C2=NC(NC3=NC=C(C)S3)=CC=C2)C(C)=N1] | 0.095 | 85.8 | IC50 [1, 8]: 0.09 µM |
| CC(C)(C)c1cn2c(n1)C(CNCc1cnn3ccccc13)CCC2 (stereo not shown) [DDD01062586, CC(C)(C)C1=CN2CCCC(CNCC3=C4C=CC=CN4N=C3)C2=N1] | 0.11 | 84.4 |  |
| Fc1ccc2[nH]c(C3CCCN3Cc3c[nH]cn3)nc2c1 (stereo not shown) [DDD01245473, FC1=CC=C2N=C(NC2=C1)C1CCCN1CC1=CN=CN1] | 1.88 | 53.9 |  |
| CC(NC(=O)c1cc(-c2cccc(Cl)c2)no1)C(=O)N1CCCC1 (stereo not shown) [UCSD-0819519] |  |  | HepG2 Cytotoxicity primary screen (2uM): % Inhibition ([2]; 2uM, primary screen): 0.00%; HepG2 cytotoxicity 12pt dose response: Maximum inhibition (%) [2]: 0.675%; IC50 [3]: > 25000 nM; IC50 [4]: 11000 nM; Emax [4]: 91.8%; Emax [5]: 37.2%; IC50 [5]: > 25000 nM |
| Cc1[nH]/c(=N\C(=O)c2csc(NC3CCCC3)n2)sc1C [UCSD-0752597] |  |  | HepG2 cytotoxicity 12pt dose response: Maximum inhibition (%) [2]: 87.9%; IC50 [3]: 11000 nM; inhibition at 2 µM [3]: 8%; IC50 [4]: 832 nM; Emax [4]: 121%; Emax [5]: 92.3%; IC50 [5]: 44400 nM |
| Cc1ccc(Nc2nccc(C3CCN(CC(N)=O)C3)n2)nc1 (stereo not shown) [UCSD-0800962] |  |  | HepG2 cytotoxicity 12pt dose response: Maximum inhibition (%) [2]: 15.1%; IC50 [3]: > 25000 nM; IC50 [4]: 2.89 nM; Emax [5]: 81.5%; IC50 [5]: 40.1 nM |
| COc1cccc(-c2noc3c2CN(c2ncnc4c2CCC4)CC3)c1 [UCSD-0837523] |  |  | HepG2 cytotoxicity 12pt dose response: Maximum inhibition (%) [2]: 52%; IC50 [3]: 8510 nM; inhibition at 2 µM [3]: -0.62%; IC50 [4]: 5790 nM; Emax [4]: 84.4%; Emax [5]: 15.5%; IC50 [5]: > 25000 nM |
| CC(=O)N1CCN(Cc2cccc3c2sc2ccccc23)CC(O)C1 (stereo not shown) [UCSD-0830872] |  |  | HepG2 cytotoxicity 12pt dose response: Maximum inhibition (%) [2]: 10.8%; IC50 [3]: > 25000 nM; inhibition at 2 µM [3]: 6.03%; IC50 [4]: 5870 nM; Emax [4]: 91%; Emax [5]: 15.6%; IC50 [5]: > 25000 nM |
